Data: patent US20090131493A1, “SUBSTITUTED BENZIMIDAZOLES FOR TREATMENT OF HISTOMONIASIS” (BAYER HEALTHCARE AG, priority 2005, published 2009)

Columns and labels:
[1] = tested on: histomonas; settings: cited from earlier work
[2] = tested on: Heterakis gallinarum; settings: treatment for 14 days after the time of infection; directed against Heterakis gallinarum, not H. meleagridis; cited from earlier work
[3] = tested on: Histomonas meleagridis; test: Test 1: cage trial, turkey chicks intracloacally infected with Histomonas meleagridis, weight gain; type: in vivo; settings: 1 day before to 13 days after infection, uninfected/untreated group 4 set at 100%
Excerpt: (§1) Young, susceptible turkey cock chicks were kept in cages and underwent intracloacal infection in a conventional way at an age of 2 weeks with about 5 log 10 infectious Histomonas meleagridis microorganisms. With the test groups which had been treated with the test compounds, two control groups were kept for comparison purposes (infected/untreated and uninfected/untreated). The test groups consisted of 6 to 10 turkeys. The test compounds, either the compound of the formula (I-1) or (I-2), were administered to the treated test groups 1 day before the infection and 13 days thereafter, with the feed. At the end of the trial, the animals were sacrificed and examined for lesions typical of histomoniasis (“blackhead disease”).

[4] = tested on: Histomonas meleagridis; test: Test 2: cage trial, turkey chicks intracloacally infected with Histomonas meleagridis, liver and caecum lesions; type: in vivo; settings: for Caecum lesions / Liver lesions: scale 0 (no lesions) to 4 (most severe lesions)
Excerpt: as §1

[5] = turkey cock; cited from earlier work

In the case of CCCSc1ccc2nc(NC(=O)OC)[nH]c2c1 [albendazole], the “activity on histomonas in vitro” value [1] is given as “inadequate activity” and the activity in vivo [2] is given as “prophylactic activity”.

CCN(Cn1c(C(F)(F)F)nc2c(Br)cc3c(c21)OC(F)(F)C(F)(F)O3)C(=O)OC [compound (I-1)] showed a Weight gain ([3]; 5 ppm in the feed) of 61%, a Caecum lesions ([4]; 5 ppm in the feed) of 3.5 and a Liver lesions ([4]; 5 ppm in the feed) of 0.8. The Caecum lesions ([4]; 15 ppm in the feed) was 3 and the Liver lesions ([4]; 15 ppm in the feed) was 0.

Work on Cc1oc(=O)oc1Cn1c(C(F)(F)F)nc2c(Cl)cc3c(c21)OC(F)(F)C(F)(F)O3 [compound (I-2)] yielded a Weight gain ([3]; 10 ppm in the feed) of 35%, a Caecum lesions ([4]; 10 ppm in the feed) of 2.1 and a Liver lesions ([4]; 10 ppm in the feed) of 0. The Caecum lesions ([4]; 30 ppm in the feed) was 0.8, the Liver lesions ([4]; 30 ppm in the feed) was 0 and the “effect on caecum lesions (in words)” value ([4]; Test 2, summary in text) was “reduced the caecum lesions”.

For COC(=O)Nc1nc2ccc(Sc3ccccc3)cc2[nH]1 [fenbendazole], the “activity on histomonas in vitro” value [1] is listed as “inadequate activity” and the activity in vivo [2] is listed as “prophylactic activity”.

For O=[N+]([O-])c1cc([As](=O)(O)O)ccc1O [roxarsone], the “effect of doubling the dosage” value [5] is listed as “impaired motor functions”.
